Data on 38 compounds can be found in patent EP3305781A1, “CHEMICAL SUBSTANCES WHICH INHIBIT THE ENZYMATIC ACTIVITY OF HUMAN KALLIKREIN-RELATED PEPTIDASE 6 (KLK6)” (Deutsches Krebsforschungszentrum, priority 2016, dated 2018).

The IC50 is the concentration at which inhibition is half-maximal.

The structures appear in SMILES notation. A value given as a limit tells only on which side of the number the result lay.

Common to all, as to assay: Biochemical inhibition assay, fluorogenic substrate FSR-AMC
Assay [1] concerns the target KLK6 (Homo sapiens, UniProt Q92876). Conditions: read-out: KLK6 IC50; KLK6 5 nM (produced in insect cells); 30 min incubation with inhibitor; FSR-AMC 20 µM; Tris pH 7.5.
The target of assay [2] is Thrombin (Homo sapiens, UniProt P00734). Conditions: read-out: Thrombin IC50; Thrombin 9.8·10^-5 NIH unit/mL; 30 min incubation with inhibitor; FSR-AMC 20 µM; Tris pH 7.5.
The target in assay [3] is Trypsin (Homo sapiens, UniProt P07477). Conditions: read-out: Trypsin IC50; Trypsin 0.88 ng/mL; 30 min incubation with inhibitor; FSR-AMC 20 µM; Tris pH 7.5.
The target of assay [4] is Factor Xa (Homo sapiens, UniProt P00742). Conditions: read-out: Factor Xa IC50; Factor Xa 4 nM; 30 min incubation with inhibitor; FSR-AMC 20 µM; Tris pH 7.5.
Chain of Factor Xa (P00742 235-488 limits assumed): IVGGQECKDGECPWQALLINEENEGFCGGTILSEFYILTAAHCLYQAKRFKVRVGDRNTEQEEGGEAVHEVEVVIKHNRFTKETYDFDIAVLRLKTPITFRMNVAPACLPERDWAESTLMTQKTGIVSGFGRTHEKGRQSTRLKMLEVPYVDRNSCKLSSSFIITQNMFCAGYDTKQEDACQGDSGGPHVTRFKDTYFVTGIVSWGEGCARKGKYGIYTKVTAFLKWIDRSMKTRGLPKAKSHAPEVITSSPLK
Chain of Factor Xa (P00742 41-179 partner limits assumed): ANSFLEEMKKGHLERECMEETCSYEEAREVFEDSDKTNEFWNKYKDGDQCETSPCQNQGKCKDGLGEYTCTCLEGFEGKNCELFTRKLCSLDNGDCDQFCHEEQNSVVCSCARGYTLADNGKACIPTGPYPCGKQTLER

As for `Cc1cc(C)n(CC(=O)OCC(=O)Nc2c(C)nn(-c3ccccc3)c2C)n1` [compound 17], the IC50 in assay [1] is 109 µM; in assay [2], over 200 µM; in assay [3], over 200 µM; in assay [4] it was over 200 µM.
For the compound `Cc1nn(-c2ccccc2)c(C)c1NC(=O)COC(=O)Cc1cn(C)c2ccccc12` [compound 18], the half-maximal inhibitory concentration (IC50) in assay [1] is 11.6 µM; in assay [2] it was over 200 µM; in assay [3] it was 149 µM; in assay [4] it was 50.5 µM.
In the same order, the values of `Cc1nn(-c2ccc(NCCCCO)cc2)c(C)c1NC(=O)COC(=O)Cn1c(C)cc2ccccc21` [compound 19] are 0.264 µM, over 200 µM, 21.3 µM and over 200 µM.
Regarding `Cc1ccc(-n2nc(C)c(NC(=O)COC(=O)Cn3c(C(F)(F)F)cc4ccccc43)c2C)cc1` [compound 20], the IC50 in assay [1] is 0.24 µM; in assay [2], over 200 µM; in assay [3], over 200 µM; in assay [4], over 200 µM.
Consider `Cc1nn(-c2ccc([N+](=O)[O-])cc2)c(C)c1NC(=O)COC(=O)Cn1c(C(F)(F)F)cc2ccccc21` [compound 21], for which the IC50 in assay [1] was 112 µM; in assay [2], over 200 µM; in assay [3], over 200 µM; in assay [4], over 200 µM.
As for `Cc1nn(-c2ccc(N)cc2)c(C)c1NC(=O)COC(=O)Cn1c(C)cc2ccccc21` [compound 22], the IC50 is 0.486 µM in assay [1], over 200 µM in assay [2], 105 µM in assay [3] and over 200 µM in assay [4].
Regarding `Cc1nn(-c2ccccc2N)c(C)c1NC(=O)COC(=O)Cn1c(C)cc2ccccc21` [compound 23], the IC50 in assay [1] is 0.375 µM; in assay [2], over 200 µM; in assay [3], over 200 µM; in assay [4], over 200 µM.
As to `Cc1cc2ccccc2n1CC(=O)OCC(=O)Nc1ccccc1` [compound 24], the IC50 is 9.96 µM in assay [1], over 50 µM in assay [2], over 50 µM in assay [3] and over 50 µM in assay [4].
With `Cc1nn(-c2ccccc2)c(C)c1NC(=O)COC(=O)Cn1ccc2c(F)cccc21` [compound 25], the IC50 in assay [1] was 30.6 µM; in assay [2], over 50 µM; in assay [3], over 50 µM; in assay [4] it was over 50 µM.
`Cc1nn(-c2ccccc2)c(C)c1NC(=O)COC(=O)Cn1ccc2cc(Cl)ccc21` [compound 28]: the IC50 in assay [1] is 26 µM; in assay [2], over 50 µM; in assay [3], over 50 µM; in assay [4], over 50 µM.
As to `Cc1nn(-c2ccccc2)c(C)c1NC(=O)COC(=O)Cn1ccc2cccc(Cl)c21` [compound 31], the IC50 in assay [1] was 1.2 µM; in assay [2], over 50 µM; in assay [3], over 50 µM; in assay [4], over 50 µM.
Turning to `Cc1nn(-c2ccccc2)c(C)c1NC(=O)COC(=O)Cn1c(C(C)C)cc2ccccc21` [compound 32], the IC50 in assay [1] was 3.36 µM; in assay [2], over 50 µM; in assay [3] it was over 50 µM; in assay [4], over 50 µM.
Turning to `Cc1nn(-c2ccccc2)c(C)c1NC(=O)COC(=O)Cn1c(C)cc2cccc(Cl)c21` [compound 33], the IC50 was 6.49 µM in assay [1], over 50 µM in assay [2], over 50 µM in assay [3] and over 50 µM in assay [4].
Consider `Cc1nn(-c2ccccc2)c(C)c1NC(=O)COC(=O)C(C)n1c(C)cc2ccccc21` (centres unmarked) [compound 34], for which the IC50 in assay [1] is 11.3 µM; in assay [2], over 50 µM; in assay [3], over 50 µM; in assay [4], over 50 µM.
Regarding `Cc1cc2ccccc2n1CC(=O)OCC(=O)Nc1ccc(N2CCOCC2)cc1` [compound 35], the IC50 is 1.41 µM in assay [1], over 50 µM in assay [2], over 50 µM in assay [3] and over 50 µM in assay [4].
Turning to `CCc1cc2ccccc2n1CC(=O)OCC(=O)Nc1c(C)nn(-c2ccccc2)c1C` [compound 36], the IC50 is 0.433 µM in assay [1], over 50 µM in assay [2], 29.3 µM in assay [3] and over 50 µM in assay [4].
For the compound `Cc1[nH]c2ccccc2c1CC(=O)OCC(=O)Nc1cnn(-c2ccccc2)c1` [compound 39], the IC50 in assay [1] is 6.98 µM; in assay [2] it was over 50 µM; in assay [3] it was over 50 µM; in assay [4], over 50 µM.
Regarding `Cc1nn(-c2ccccc2)c(C)c1NC(=O)COC(=O)Cc1coc2ccccc12` [compound 41], the IC50 in assay [1] is 31.3 µM; in assay [2], over 50 µM; in assay [3], over 50 µM; in assay [4], over 50 µM.
As to `CC(=O)Nc1cccc(CC(=O)OCC(=O)Nc2c(C)nn(-c3ccccc3)c2C)c1` [compound 47], the IC50 is 31.4 µM in assay [1], over 200 µM in assay [2], over 200 µM in assay [3] and over 200 µM in assay [4].
Regarding `Cc1ccccc1CC(=O)OCC(=O)Nc1c(C)nn(-c2ccccc2)c1C` [compound 50], the IC50 in assay [1] is 2.16 µM; in assay [2] it was over 200 µM; in assay [3], over 200 µM; in assay [4], over 200 µM.
Turning to `Cc1nn(-c2ccccc2)c(C)c1NC(=O)COC(=O)Cc1ccccc1I` [compound 51], the IC50 in assay [1] is 0.261 µM; in assay [2] it was over 200 µM; in assay [3] it was over 200 µM; in assay [4], over 200 µM.
In the case of `COc1ccc(CC(=O)OCC(=O)Nc2c(C)nn(-c3ccccc3)c2C)cc1` [compound 52], the IC50 is 32.8 µM in assay [1], over 200 µM in assay [2], over 200 µM in assay [3] and over 200 µM in assay [4].
`COc1cccc(CC(=O)OCC(=O)Nc2c(C)nn(-c3ccccc3)c2C)c1` [compound 53]: the IC50 was 30 µM in assay [1], over 200 µM in assay [2], over 200 µM in assay [3] and over 200 µM in assay [4].
On to `COc1ccccc1CC(=O)OCC(=O)Nc1c(C)nn(-c2ccccc2)c1C` [compound 54], for which the IC50 in assay [1] is 4.85 µM; in assay [2] it was over 200 µM; in assay [3] it was over 200 µM; in assay [4] it was over 200 µM.
For `Cc1nn(-c2ccccc2)c(C)c1NC(=O)COC(=O)Cc1cccc(N)c1` [compound 55], the IC50 is 17 µM in assay [1], over 200 µM in assay [2], over 200 µM in assay [3] and over 200 µM in assay [4].
Take `Cc1nn(-c2ccccc2)c(C)c1NC(=O)COC(=O)Cc1cccc(C#N)c1` [compound 56]: the IC50 in assay [1] was 16.1 µM; in assay [2], over 200 µM; in assay [3], over 200 µM; in assay [4], over 200 µM.
In the case of `Cc1nn(-c2ccccc2)c(C)c1NC(=O)COC(=O)Cc1ccccn1` [compound 58], the IC50 is 8.86 µM in assay [1], over 200 µM in assay [2], over 200 µM in assay [3] and over 200 µM in assay [4].
`Cc1nn(-c2ccccc2)c(C)c1NC(=O)COC(=O)Cc1cccs1` [compound 59]: the 50% inhibitory concentration (IC50) in assay [1] is 6.28 µM; in assay [2], over 200 µM; in assay [3], over 200 µM; in assay [4], over 200 µM.
For `Cc1nn(-c2ccccc2)c(C)c1NC(=O)COC(=O)Cc1ccc(Cl)s1` [compound 60], the IC50 in assay [1] was 32.6 µM; in assay [2] it was over 200 µM; in assay [3], over 200 µM; in assay [4] it was over 200 µM.
`Cc1nn(-c2ccccc2)c(C)c1NC(=O)COC(=O)Cc1cc(Cl)sc1Cl` [compound 61]: the IC50 was 2.33 µM in assay [1], over 200 µM in assay [2], over 200 µM in assay [3] and over 200 µM in assay [4].
As to `Cc1nn(-c2ccccc2)c(C)c1NC(=O)COC(=O)Cc1ccccc1C(F)(F)F` [compound 63], the IC50 in assay [1] was 2.35 µM; in assay [2], over 200 µM; in assay [3], over 200 µM; in assay [4], over 200 µM.
Consider `Cc1nn(-c2ccccc2)c(C)c1NC(=O)COC(=O)Cc1cccc(F)c1` [compound 64], for which the IC50 in assay [1] is 22 µM; in assay [2], over 200 µM; in assay [3], over 200 µM; in assay [4], over 200 µM.
Take `C=CCOc1ccccc1NC(=O)COC(=O)Cc1ccccc1I` [compound 65]: the IC50 in assay [1] was 38.7 µM; in assay [2], over 200 µM; in assay [3], over 200 µM; in assay [4] it was over 200 µM.
Take `Cc1nn(-c2ccccc2)c(C)c1NC(=O)COC(=O)Cc1ccsc1Cl` [compound 66]: the IC50 in assay [1] was 7.4 µM; in assay [2], over 200 µM; in assay [3], over 200 µM; in assay [4] it was over 200 µM.
`Cc1[nH]c2ccccc2c1CC(=O)OCC(=O)NC(C)(C)C` [compound 67]: the IC50 in assay [1] is 166 µM; in assay [2], over 200 µM; in assay [3] it was over 200 µM; in assay [4], over 200 µM.
As for `Cc1nn(-c2ccccc2)c(C)c1NC(=O)COC(=O)Cc1ccco1` [compound 68], the IC50 in assay [1] is 46 µM; in assay [2], over 200 µM; in assay [3], over 200 µM; in assay [4], over 200 µM.
For `Cc1nn(-c2ccccc2)c(C)c1NC(=O)COC(=O)Cc1ccccc1OCc1ccccc1` [compound 69], the IC50 in assay [1] was 57.4 µM; in assay [2], over 200 µM; in assay [3], over 200 µM; in assay [4], over 200 µM.
In the case of `Cc1[nH]c2ccccc2c1CC(=O)OCC(=O)NC1CCCC1` [compound 71], the IC50 in assay [1] is 78.7 µM; in assay [2], over 200 µM; in assay [3] it was over 200 µM; in assay [4], over 200 µM.
